Measurements: patent US7728012B2, “Carboxamide compounds and their use as calpain inhibitors” (Abbott GmbH & Co. KG, priority 2006, dated 2010)

Assays:
Assay type in all cases: biochemical
[1] = biological target: T1, calpain-I isolated from human erythrocytes (Homo sapiens, UniProt P07384); experiment: Calpain I kinetic fluorescence enzyme inhibition assay; details: apparent Ki from IC50 by Cheng-Prussoff; average of 2 to 4 dose-effect plots
T1 construct: calpain-I—isolated from human erythrocytes; purchased Calbiochem 208713; host or cells: human erythrocytes (tissue isolate)
T1 sequence (P07384 1-714): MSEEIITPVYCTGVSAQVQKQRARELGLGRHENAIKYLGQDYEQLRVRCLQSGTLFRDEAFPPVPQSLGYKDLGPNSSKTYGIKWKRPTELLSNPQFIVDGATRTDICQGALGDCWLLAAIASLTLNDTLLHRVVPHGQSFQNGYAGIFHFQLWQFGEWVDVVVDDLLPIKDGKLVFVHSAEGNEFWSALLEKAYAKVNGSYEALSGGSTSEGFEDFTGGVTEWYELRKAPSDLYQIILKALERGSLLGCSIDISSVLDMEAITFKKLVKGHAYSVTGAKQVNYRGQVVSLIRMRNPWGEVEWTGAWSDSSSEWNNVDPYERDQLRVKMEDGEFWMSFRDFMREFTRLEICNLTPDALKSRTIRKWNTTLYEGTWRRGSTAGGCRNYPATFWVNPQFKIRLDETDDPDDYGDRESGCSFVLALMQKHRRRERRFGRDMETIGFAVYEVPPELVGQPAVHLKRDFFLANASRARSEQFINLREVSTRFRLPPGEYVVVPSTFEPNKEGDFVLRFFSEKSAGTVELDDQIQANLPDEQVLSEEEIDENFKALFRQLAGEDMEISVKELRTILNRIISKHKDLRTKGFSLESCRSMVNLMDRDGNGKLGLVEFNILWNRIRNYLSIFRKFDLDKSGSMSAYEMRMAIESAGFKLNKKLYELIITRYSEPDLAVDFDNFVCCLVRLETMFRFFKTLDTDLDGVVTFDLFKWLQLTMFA
T1 sequence (P04632 1-268 partner): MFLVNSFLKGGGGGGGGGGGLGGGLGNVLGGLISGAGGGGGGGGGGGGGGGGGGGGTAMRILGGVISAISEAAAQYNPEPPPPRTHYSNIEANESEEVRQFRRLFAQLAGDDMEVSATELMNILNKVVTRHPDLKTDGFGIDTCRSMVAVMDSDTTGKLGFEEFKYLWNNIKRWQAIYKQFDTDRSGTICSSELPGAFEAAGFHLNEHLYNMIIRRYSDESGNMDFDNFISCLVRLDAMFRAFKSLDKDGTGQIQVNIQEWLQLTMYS

[2] = biological target: T2, cathepsin B isolated from human liver (Homo sapiens, UniProt P07858); experiment: Cathepsin B kinetic fluorescence enzyme inhibition assay; details: selectivity ratio versus calpain I
T2 construct: cathepsin B—isolated from human liver; purchased Calbiochem 219362; host or cells: human liver (tissue isolate)
Summary of the method: (§1)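 Kinetic fluorescence (ex 390/em 460 nm) at room temperature in 50 mM MES, 2 mM EDTA, 0.05% Brij 35, 2.5 mM L-cysteine, pH 6.0. Cathepsin B (liver, 0.25 nM) with 100 μM Z-Phe-Arg-AMC; cathepsin L (liver, 1 nM) with 2 μM Z-Phe-Arg-AMC; recombinant E. coli cathepsin S (0.5 nM) with 20 μM Z-Val-Val-Arg-AMC. Ki via Cheng-Prusoff.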

[3] = biological target: T3, cathepsin K activated from recombinant human procathepsin K (Homo sapiens, UniProt P43235); experiment: Cathepsin K kinetic fluorescence enzyme inhibition assay; details: selectivity ratio versus calpain I
T3 construct: purchased Calbiochem 342001; host or cells: E. coli
T3 sequence (P43235 115-329): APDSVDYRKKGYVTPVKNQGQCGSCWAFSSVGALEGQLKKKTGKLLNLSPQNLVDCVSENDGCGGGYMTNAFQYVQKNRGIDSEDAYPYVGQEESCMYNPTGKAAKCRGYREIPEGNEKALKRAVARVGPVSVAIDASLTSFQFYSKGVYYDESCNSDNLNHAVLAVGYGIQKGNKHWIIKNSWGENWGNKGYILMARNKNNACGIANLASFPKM

[4] = biological target: T4, cathepsin L isolated from human liver (Homo sapiens, UniProt P07711); experiment: Cathepsin L kinetic fluorescence enzyme inhibition assay; details: selectivity ratio versus calpain I
T4 construct: cathepsin L—isolated from human liver; purchased Calbiochem 219402; host or cells: human liver (tissue isolate)
Summary of the method: as §1

[5] = biological target: T5, recombinant human cathepsin S (Homo sapiens, UniProt P25774); experiment: Cathepsin S kinetic fluorescence enzyme inhibition assay; details: selectivity ratio versus calpain I
T5 construct: purchased Calbiochem 219343; host or cells: E. coli
Summary of the method: as §1

T4 sequence (P07711 114-333): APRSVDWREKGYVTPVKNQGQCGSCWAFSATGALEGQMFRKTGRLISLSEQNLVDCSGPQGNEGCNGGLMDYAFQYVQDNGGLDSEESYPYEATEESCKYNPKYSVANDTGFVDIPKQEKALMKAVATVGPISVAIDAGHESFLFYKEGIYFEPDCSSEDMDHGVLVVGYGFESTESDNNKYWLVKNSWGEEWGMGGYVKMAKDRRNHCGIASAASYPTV
T5 sequence (P25774 115-331): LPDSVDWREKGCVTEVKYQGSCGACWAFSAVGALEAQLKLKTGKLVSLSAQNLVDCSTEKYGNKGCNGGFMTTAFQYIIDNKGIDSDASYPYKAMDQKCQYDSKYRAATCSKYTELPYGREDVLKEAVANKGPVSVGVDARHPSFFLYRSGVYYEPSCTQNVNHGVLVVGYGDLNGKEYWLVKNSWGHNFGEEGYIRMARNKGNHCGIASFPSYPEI

| SMILES | Ki [1] | Sel cat. B (Ki(cathepsin B)/Ki(calpain) ratio) [2] | Sel cat. K (Ki(cathepsin K)/Ki(calpain) ratio) [3] | Sel cat. L (Ki(cathepsin L)/Ki(calpain) ratio) [4] | Sel cat. S (Ki(cathepsin S)/Ki(calpain) ratio) [5] |
| --- | --- | --- | --- | --- | --- |
| COc1ccc(CC(NC(=O)c2cccnc2-n2ccc(-c3ccc(F)cc3)n2)C(=O)C(N)=O)cc1 (centres unmarked) [Example 81, N-[3-Amino-1-(4-methoxybenzyl)-2,3-dioxopropyl]-2-[3-(4-fluorophenyl)-1H-pyrazol-1-yl]nicotinamide] | ≤ 40 nM | + (10≦Ki(cathepsin B)/Ki(calpain)<30) | + (10≦Ki(cathepsin K)/Ki(calpain)<30) | ++ (Ki(cathepsin L)/Ki(calpain) ratio of ≧50) | ++ (Ki(cathepsin S)/Ki(calpain) ratio of ≧100) |
| NC(=O)C(=O)C(Cc1ccccc1)NC(=O)c1cccnc1-n1ccc(-c2cccc(C(F)(F)F)c2)n1 (centres unmarked) [Example 83, N-(3-Amino-1-benzyl-2,3-dioxopropyl)-2-{3-[3-(trifluoromethyl)phenyl]-1H-pyrazol-1-yl}nicotinamide] | ≤ 40 nM | + (10≦Ki(cathepsin B)/Ki(calpain)<30) | ++ (Ki(cathepsin K)/Ki(calpain) ratio of ≧30) | ++ (Ki(cathepsin L)/Ki(calpain) ratio of ≧50) | ++ (Ki(cathepsin S)/Ki(calpain) ratio of ≧100) |
| NC(=O)C(=O)C(Cc1ccccc1)NC(=O)c1cccnc1-n1ccc(-c2c(F)cccc2F)n1 (centres unmarked) [Example 85, N-[3-Amino-2,3-dioxo-1-(phenylmethyl)propyl]-2-[3-(2,6-difluorophenyl)-1H-pyrazol-1-yl]pyridine-3-carboxamide] | ≤ 40 nM | + (10≦Ki(cathepsin B)/Ki(calpain)<30) | ++ (Ki(cathepsin K)/Ki(calpain) ratio of ≧30) | ++ (Ki(cathepsin L)/Ki(calpain) ratio of ≧50) | ++ (Ki(cathepsin S)/Ki(calpain) ratio of ≧100) |
| CC(C)c1ccc(-c2ccn(-c3ncccc3C(=O)NC(Cc3ccccc3)C(=O)C(N)=O)n2)cc1 (centres unmarked) [Example 87, N-[3-Amino-2,3-dioxo-1-(phenylmethyl)propyl]-2-{3-[4-(1-methylethyl)phenyl]-1H-pyrazol-1-yl}pyridine-3-carboxamide] | ≤ 40 nM | ++ (Ki(cathepsin B)/Ki(calpain) ratio of ≧30) | ++ (Ki(cathepsin K)/Ki(calpain) ratio of ≧30) | ++ (Ki(cathepsin L)/Ki(calpain) ratio of ≧50) | ++ (Ki(cathepsin S)/Ki(calpain) ratio of ≧100) |
| Cl.NC(=O)C(=O)C(Cc1cccnc1)NC(=O)c1cccnc1-n1ccc(-c2ccccc2)n1 (centres unmarked) [Example 88, N-[3-Amino-2,3-dioxo-1-(pyridin-3-ylmethyl)propyl]-2-(3-phenyl-1H-pyrazol-1-yl)pyridine-3-carboxamide hydrochloride] | 40 to 100 nM | + (10≦Ki(cathepsin B)/Ki(calpain)<30) | ++ (Ki(cathepsin K)/Ki(calpain) ratio of ≧30) | ++ (Ki(cathepsin L)/Ki(calpain) ratio of ≧50) | ++ (Ki(cathepsin S)/Ki(calpain) ratio of ≧100) |
| COc1ccccc1-c1ccn(-c2ncccc2C(=O)NC(Cc2ccccc2)C(=O)C(N)=O)n1 (centres unmarked) [Example 90, N-[3-Amino-2,3-dioxo-1-(phenylmethyl)propyl]-2-{3-[2-(methyloxy)phenyl]-1H-pyrazol-1-yl}pyridine-3-carboxamide] | ≤ 40 nM | ++ (Ki(cathepsin B)/Ki(calpain) ratio of ≧30) | + (10≦Ki(cathepsin K)/Ki(calpain)<30) | ++ (Ki(cathepsin L)/Ki(calpain) ratio of ≧50) | ++ (Ki(cathepsin S)/Ki(calpain) ratio of ≧100) |
| NC(=O)C(=O)C(Cc1ccccc1)NC(=O)c1cccnc1-n1ccc(-c2cc(F)cc(F)c2)n1 (centres unmarked) [Example 91, N-[3-Amino-2,3-dioxo-1-(phenylmethyl)propyl]-2-[3-(3,5-difluorophenyl)-1H-pyrazol-1-yl]pyridine-3-carboxamide] | ≤ 40 nM | ++ (Ki(cathepsin B)/Ki(calpain) ratio of ≧30) | + (10≦Ki(cathepsin K)/Ki(calpain)<30) | ++ (Ki(cathepsin L)/Ki(calpain) ratio of ≧50) | ++ (Ki(cathepsin S)/Ki(calpain) ratio of ≧100) |
| COc1ccc(CC(NC(=O)c2cccnc2-n2ccc(-c3ccccc3F)n2)C(=O)C(N)=O)cc1 (centres unmarked) [Example 92, N-(3-Amino-1-{[4-(methyloxy)phenyl]methyl}-2,3-dioxopropyl)-2-[3-(2-fluorophenyl)-1H-pyrazol-1-yl]pyridine-3-carboxamide] | 40 to 100 nM | ++ (Ki(cathepsin B)/Ki(calpain) ratio of ≧30) | + (10≦Ki(cathepsin K)/Ki(calpain)<30) | ++ (Ki(cathepsin L)/Ki(calpain) ratio of ≧50) | ++ (Ki(cathepsin S)/Ki(calpain) ratio of ≧100) |
| Cc1ccccc1-c1ccn(-c2ncccc2C(=O)NC(Cc2ccccc2)C(=O)C(N)=O)n1 (centres unmarked) [Example 93, N-[3-Amino-2,3-dioxo-1-(phenylmethyl)propyl]-2-[3-(2-methylphenyl)-1H-pyrazol-1-yl]pyridine-3-carboxamide] | ≤ 40 nM | ++ (Ki(cathepsin B)/Ki(calpain) ratio of ≧30) | + (10≦Ki(cathepsin K)/Ki(calpain)<30) | ++ (Ki(cathepsin L)/Ki(calpain) ratio of ≧50) | ++ (Ki(cathepsin S)/Ki(calpain) ratio of ≧100) |
| NC(=O)C(=O)C(Cc1ccccc1)NC(=O)c1cccnc1-n1ccc(-c2ccc(F)cc2F)n1 (centres unmarked) [Example 94, N-[3-Amino-2,3-dioxo-1-(phenylmethyl)propyl]-2-[3-(2,4-difluorophenyl)-1H-pyrazol-1-yl]pyridine-3-carboxamide] | 40 to 100 nM | ++ (Ki(cathepsin B)/Ki(calpain) ratio of ≧30) | + (10≦Ki(cathepsin K)/Ki(calpain)<30) | ++ (Ki(cathepsin L)/Ki(calpain) ratio of ≧50) | ++ (Ki(cathepsin S)/Ki(calpain) ratio of ≧100) |
